Measurements: patent US8598087B2, “Crystalline form of 4-[5-[3-chloro-5-(trifluoromethyl)phenyl]-4, 5-dihydro-5-(trifluoromethyl)-3-isoxazolyl]-N-[2-0X0-2-[(2,2,2-trifluoroethyl)amino]ethyl]-1- naph-thalenecarboxamide” (E. I. du Pont de Nemours and Company, priority 2010, dated 2013)
Entries after “also recorded” stand apart in the source; their conditions may differ.

Experiments:
Assay type in all cases: physicochemical
[1] = Interconversion slurry experiments (relative stability of solid forms, XRPD)
Procedure: Interconversion slurry experiments were performed in a variety of solvents at different temperatures. Sufficient amounts of Compound 1 were added to solvents in vials so that excess solid remained. The mixtures were agitated in sealed vials at the selected temperature and the solids were isolated by filtration after the selected time and analyzed by XRPD.

[2] = Physical stability of amorphous Compound 1 (vapor stress and slurry, XRPD)
Procedure: The physical stability of the amorphous material was characterized. […] Amorphous Compound 1 was also slurried in methanol\water (1:1) for 5 days at 60° C. resulting in irregular fragments of crystals determined to be Form B by XRPD.

[3] = Physical stability / hygroscopicity of polymorph Form A (relative humidity exposure); conditions: 5 to 95% relative humidity at 25° C. (5 hours)
Procedure: The physical stability of polymorph Form A was characterized. A samples of Form A exposed to 5 to 95% relative humidity at 25° C.

[4] = Physical stability of polymorph Form B under humidity stress (XRPD)
Vacuum drying experiment = assay: Vacuum drying experiment

O=C(CNC(=O)c1ccc(C2=NOC(c3cc(Cl)cc(C(F)(F)F)c3)(C(F)(F)F)C2)c2ccccc12)NCC(F)(F)F (racemic) [Compound 1, 4-[5-[3-chloro-5-(trifluoromethyl)phenyl]-4,5-dihydro-5-(trifluoromethyl)-3-isoxazolyl]-N-[2-oxo-2-[(2,2,2-trifluoroethyl)amino]ethyl]-1-naphthalenecarboxamide]
solid form yielded by slurry (XRPD) ([1]; acetonitrile, 3 days at 83° C.): Pattern G solid | solid form yielded by slurry (XRPD) ([1]; acetonitrile, 8 days at 0° C.): Pattern G solid | solid form yielded by slurry (XRPD) ([1]; acetonitrile/water (9:1), 3 days at 83° C.): polymorph Form B | solid form yielded by slurry (XRPD) ([1]; acetonitrile/water (9:1), 8 days at 0° C.): Pattern G solid

O=C(CNC(=O)c1ccc(C2=NOC(c3cc(Cl)cc(C(F)(F)F)c3)(C(F)(F)F)C2)c2ccccc12)NCC(F)(F)F (centres unmarked) [Amorphous Compound 1, 4-[5-[3-chloro-5-(trifluoromethyl)phenyl]-4,5-dihydro-5-(trifluoromethyl)-3-isoxazolyl]-N-[2-oxo-2-[(2,2,2-trifluoroethyl)amino]ethyl]-1-naphthalenecarboxamide]
physical stability of the amorphous solid ([2]; pure solid form, conclusion of vapor stress and slurry): physically unstable and readily crystallized | solid form obtained after slurry (by XRPD) ([2]; slurried in methanol\water (1:1) for 5 days at 60° C.): Form B | solid form obtained after vapor stress (by XRPD) ([2]; vapor stressed under acetonitrile at 25° C. for 2 days): Pattern G material

O=C(CNC(=O)c1ccc(C2=NOC(c3cc(Cl)cc(C(F)(F)F)c3)(C(F)(F)F)C2)c2ccccc12)NCC(F)(F)F (centres unmarked) [Form A, 4-[5-[3-chloro-5-(trifluoromethyl)phenyl]-4,5-dihydro-5-(trifluoromethyl)-3-isoxazolyl]-N-[2-oxo-2-[(2,2,2-trifluoroethyl)amino]ethyl]-1-naphthalenecarboxamide]
hygroscopicity [3]: non-hygroscopic | weight change on exposure to relative humidity [3]: negligible weight change | relative physical stability of solid forms ([1]; in acetonitrile): metastable solid form

O=C(CNC(=O)c1ccc(C2=NOC(c3cc(Cl)cc(C(F)(F)F)c3)(C(F)(F)F)C2)c2ccccc12)NCC(F)(F)F (centres unmarked) [Form B, 4-[5-[3-chloro-5-(trifluoromethyl)phenyl]-4,5-dihydro-5-(trifluoromethyl)-3-isoxazolyl]-N-[2-oxo-2-[(2,2,2-trifluoroethyl)amino]ethyl]-1-naphthalenecarboxamide]
relative physical stability of solid forms ([1]; in organic solvent/water mixtures especially methanol/water): most stable solid form | change by XRPD after humidity stress ([4]; 60% relative humidity (25° C.) for 1 month): unchanged by XRPD | change by XRPD after humidity stress ([4]; 75% relative humidity (40° C.) for 1 month): unchanged by XRPD | physical stability of Form B ([4]; pure solid form, conclusion of humidity stress conditions tested): physically stable; also recorded: stable under the conditions tested

O=C(CNC(=O)c1ccc(C2=NOC(c3cc(Cl)cc(C(F)(F)F)c3)(C(F)(F)F)C2)c2ccccc12)NCC(F)(F)F (centres unmarked) [Pattern G solid]
solid form obtained after vacuum drying (Vacuum drying experiment; vacuum drying (36-68 mtorr) at 50° C. for 4 hours): Form A | solid form obtained after vacuum drying (Vacuum drying experiment; vacuum drying (51 mtorr) at 70° C. for 5 hours): solid glass | relative physical stability of solid forms ([1]; in acetonitrile): most stable solid form
